Assay results reported in US20240424115A1, “LONG-ACTING INTERLEUKIN-15 RECEPTOR AGONISTS AND RELATED IMMUNOTHERAPEUTIC COMPOSITIONS AND METHODS” (Nektar Therapeutics, priority 2017, published 2024).

How the values were obtained:
[1] = tested on: human PBMCs; experiment: HuPBMC-pStat5 assay (flow cytometry, lymphocyte subpopulations); type: cell-based
Procedure: The potency of IL-15 or long acting IL-15 R agonists on various human lymphocyte subpopulations was determined by phospho-STAT5 (Y694) dose response assay. Frozen human PBMCs from multiple donors were supplied by AllCells. 1×10^6 cells/100ul were cultured in complete RPMI media for 2 hours and then incubated with the indicated concentrations (10,000ng/ml-0.001ng/ml serial dilutions) of IL-15 or conjugates for 20minutes at 37c. The cells were then fixed (using BD Cytofix) and permeabilized (using 100% pre-chilled methanol) and stained with antibodies for CD3, CD4, CD8, CD4-Tregs (CD4+CD25+Foxp3+), CD56 and phosphorylated STAT5 (Y694) before analysis by flow cytometry. Concentration-response relationships were used to calculate the EC50 values.
Assessment of in-vitro activity of exemplary long-acting IL-15 receptor agonists (e.g., Conjugates 1, 3 and 5) was carried out by investigating signaling in NK cell subsets of human PBMCs as shown in FIGS. 10A (CD56bright cells) and 10B (CD56dim cells). STAT5 phosphorylation was evaluated as previously described for assessing IL-15 signaling activity of the long acting IL-15 receptor agonists.
A second study was conducted to investigate/compare the pStat5 response of human PBMCs obtained from two donors (CD3, CD4, CD8, CD56 (bright and dim) and CD4-Tregs (CD25+Foxp3+)) to IL-15, Conjugate 1 and Conjugate 5. An […] dose response was examined using a 10-fold dilution with a dose range of 0.001-10000 ng/ml and a 20 min stimulation. Each of the test articles was diluted in IL-15 buffer+0.1% BSA.
Assessment of in vitro activity of Conjugate 1 was carried out by investigating NK and CD8 JAK/STAT signaling after treatment of human PBMCs with IL-15 or Conjugate 1 at a dose range of 0.001-10000 ng/ml. STAT5 phosphorylation was assessed as previously described.

[2] = Single dose PK study in non-human primates (plasma concentration); type: in vivo; settings: cynomolgus monkeys, single i.v. 50 μg/kg
Procedure: Cynomolgus monkeys (n=2, 1 male and 1 female), were administered a single intravenous dose of Conjugate 1 at 10, 50 and 100 μg/kg. IL-15 was administered as a single intravenous dose at 50 μg/kg as a control. Plasma concentration of drug was determined at the indicated time points post injection (0.03, 0.25, 1, 4, 12, 24, 48, 72, 96, 120, 144, 168 hours).

[3] = tested on: CD4, CD8, and NK cells; experiment: In vivo IL-15 signaling (STAT5 phosphorylation in lymphocytes) in mice
Text: Conventional approaches, such as those involving radiolabeling a compound, administering the compound in vivo, and determining its clearance, can be used to assess whether a compound proposed to be a long-acting, IL-15 R agonist is “long-acting” (i.e., has a clearance that is longer than that of IL-15 administered in the same in vivo system). For the purposes herein, the long acting nature of a long-acting IL-15 R agonist may be, and is typically determined using flow cytometry to measure STAT5 phosphorylation in lymphocytes at various time points after administration of the agonist to be evaluated in mice. As a reference, the signal is lost by around 24 hours with IL-15, but is sustained for a period greater than that for a long-acting IL-15 agonist.
Mice were dosed as described in Example 6 above to assess in-vivo signaling as assessed by degree of STAT5 phosphorylation. Degree of STAT5 phosphorylation in various lymphocytes (CD4, CD8, and NK cells) was assessed by staining whole blood for leukocyte surface markers and pSTAT5, followed by measurement by flow cytometry. Results are shown in FIGS. 8A and 8 B for IL-15 and for Conjugate 2, respectively.
[PK methods previously described herein].
STAT5 phosphorylation in CD4 T cells was determined by using a CD3+CD4+CD8-pSTAT5+ marker combination. FIG. 43 is a plot of pSTAT5 phosphorylation percent positivity within CD4 T cells over time (at 0.25, 1, 6, 24, 48, 72, 96 and 120 hours post administration) at a dose of 0.03 mg/kg (blue, solid squares) or 0.3 mg/kg (orange, solid circles). The vehicle over time (black) and pre-dose (open circles) levels are also shown.

Substance: IL-15: recombinant human IL-15 from E. coli, SEQ ID NO: 1, non-glycosylated, 12.9 kDa; unconjugated comparator
- EC50 (ng/ml)-% pSTAT5 CD3 donor1 ([1]; CD3 cells, donor1, 20 min stimulation): 0.17 ng/ml
- EC50 (ng/ml)-% pSTAT5 CD3 donor2 ([1]; CD3 cells, donor2, 20 min stimulation): 0.17 ng/ml
- EC50 (ng/ml)-% pSTAT5 Treg donor1 ([1]; CD4-Treg cells, donor1): 0.08 ng/ml
- EC50 (ng/ml)-% pSTAT5 Treg donor2 ([1]; CD4-Treg cells, donor2): 0.084 ng/ml
- EC50 (ng/ml)-% pSTAT5 CD4 donor1 ([1]; CD4 cells, donor1): 0.177 ng/ml
- EC50 (ng/ml)-% pSTAT5 CD4 donor2 ([1]; CD4 cells, donor2): 0.20 ng/ml
- EC50 (ng/ml)-% pSTAT5 CD8 donor1 ([1]; CD8 cells, donor1): 0.17 ng/ml
- EC50 (ng/ml)-% pSTAT5 CD8 donor2 ([1]; CD8 cells, donor2): 0.15 ng/ml
- EC50 (ng/ml)-% pSTAT5 CD56bright donor1 ([1]; CD56bright cells, donor1): 0.11 ng/ml
- EC50 (ng/ml)-% pSTAT5 CD56bright donor2 ([1]; CD56bright cells, donor2): 0.19 ng/ml
- EC50 (ng/ml)-% pSTAT5 CD56dim donor1 ([1]; CD56dim cells, donor1): 0.26 ng/ml
- EC50 (ng/ml)-% pSTAT5 CD56dim donor2 ([1]; CD56dim cells, donor2): 0.54 ng/ml
- EC50 (ng/ml) pSTAT5 CD56bright NK ([1]; Table 3, CD56bright NK cells): 0.4 ng/ml
- EC50 (ng/ml)-% pSTAT5 CD3 ([1]; Table 7 Summary Table, CD3): 0.17 ng/ml
- EC50 (ng/ml)-% pSTAT5 CD4 ([1]; Table 7 Summary Table, CD4): 0.177 ng/ml
- EC50 (ng/ml)-% pSTAT5 CD8 ([1]; Table 7 Summary Table, CD8): 0.17 ng/ml
- EC50 (ng/ml)-% pSTAT5 CD56bright ([1]; Table 7 Summary Table, CD56bright): 0.11 ng/ml
- EC50 (ng/ml)-% pSTAT5 CD56dim ([1]; Table 7 Summary Table, CD56dim): 0.26 ng/ml
- EC50 (ng/ml)-% pSTAT5 Treg ([1]; Table 7 Summary Table, Treg): 0.08 ng/ml
- EC50 (ng/ml)-MFI CD3 donor1 ([1]; pSTAT5 MFI, CD3 cells, donor1): 4.0 ng/mL
- EC50 (ng/ml)-MFI CD3 donor2 ([1]; pSTAT5 MFI, CD3 cells, donor2): 5.22 ng/mL
- EC50 (ng/ml)-MFI Treg donor1 ([1]; pSTAT5 MFI, CD4-Treg cells, donor1): 0.6 ng/mL
- EC50 (ng/ml)-MFI Treg donor2 ([1]; pSTAT5 MFI, CD4-Treg cells, donor2): 0.71 ng/mL
- EC50 (ng/ml)-MFI CD4 donor1 ([1]; pSTAT5 MFI, CD4 cells, donor1): 3.6 ng/mL
- EC50 (ng/ml)-MFI CD4 donor2 ([1]; pSTAT5 MFI, CD4 cells, donor2): 5.8 ng/mL
- EC50 (ng/ml)-MFI CD8 donor1 ([1]; pSTAT5 MFI, CD8 cells, donor1): 3.5 ng/mL
- EC50 (ng/ml)-MFI CD8 donor2 ([1]; pSTAT5 MFI, CD8 cells, donor2): 5.5 ng/mL
- EC50 (ng/ml)-MFI CD56bright donor1 ([1]; pSTAT5 MFI, CD56bright cells, donor1): 0.49 ng/mL
- EC50 (ng/ml)-MFI CD56bright donor2 ([1]; pSTAT5 MFI, CD56bright cells, donor2): 0.96 ng/mL
- EC50 (ng/ml)-MFI CD56dim donor1 ([1]; pSTAT5 MFI, CD56dim cells, donor1): 1.4 ng/mL
- EC50 (ng/ml)-MFI CD56dim donor2 ([1]; pSTAT5 MFI, CD56dim cells, donor2): 3.7 ng/mL
- plasma levels following administration [2]: rapidly cleared from the plasma
- duration of in-vivo STAT5 phosphorylation activity in NK and CD8 cells ([3]; C57BL/6 mice, single i.v. 0.3 mg/kg): extremely short-lived
- time by which the STAT5 phosphorylation signal in lymphocytes is lost ([3]; mice, reference): around 24 hours
